From US20200247800A1, “SUBSTITUTED BICYCLIC HETEROCYCLIC COMPOUNDS AS NADPH OXIDASE INHIBITORS” (Glenmark Pharmaceuticals S.A., priority 2017, published 2020)

Target: T1, human NOX4 (Homo sapiens, UniProt Q9NPH5)
T1 construct: expressed in transfected cells; membrane fraction used
T1 sequence (Q9NPH5 1-578): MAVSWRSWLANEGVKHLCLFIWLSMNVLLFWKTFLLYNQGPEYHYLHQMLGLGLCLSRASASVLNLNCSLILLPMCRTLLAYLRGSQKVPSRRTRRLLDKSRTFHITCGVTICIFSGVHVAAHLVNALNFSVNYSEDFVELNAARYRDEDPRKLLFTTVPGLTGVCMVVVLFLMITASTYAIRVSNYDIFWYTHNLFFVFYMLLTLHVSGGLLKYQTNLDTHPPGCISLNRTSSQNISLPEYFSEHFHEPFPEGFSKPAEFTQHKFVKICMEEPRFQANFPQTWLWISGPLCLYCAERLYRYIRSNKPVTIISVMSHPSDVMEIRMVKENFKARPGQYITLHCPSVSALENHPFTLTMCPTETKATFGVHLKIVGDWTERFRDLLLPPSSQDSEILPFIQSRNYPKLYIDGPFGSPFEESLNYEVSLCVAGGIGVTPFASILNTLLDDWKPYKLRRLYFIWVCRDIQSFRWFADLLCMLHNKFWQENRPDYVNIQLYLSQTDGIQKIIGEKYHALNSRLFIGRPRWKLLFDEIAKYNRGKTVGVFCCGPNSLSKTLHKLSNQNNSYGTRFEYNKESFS
T1 sequence (P13498 1-195 partner): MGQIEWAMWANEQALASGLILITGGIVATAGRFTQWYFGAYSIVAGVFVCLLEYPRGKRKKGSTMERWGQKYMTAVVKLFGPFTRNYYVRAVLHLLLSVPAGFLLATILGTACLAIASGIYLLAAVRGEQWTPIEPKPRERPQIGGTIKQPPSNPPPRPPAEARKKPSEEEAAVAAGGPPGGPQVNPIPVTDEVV
Assay: Cell free membrane based in vitro NOX4 assay: H2O2 production by membranes expressing human NOX4, measured with Amplex Red
Type: biochemical
Conditions: for inhibition at 1 µM: 1.0 μM compound, read-out: Percentage inhibition at 1.0 μM; for inhibition at 10 µM: 10.0 μM compound, read-out: Percentage inhibition at 10.0 μM; for IC50: class symbols
Description: The inhibition of NOX4 activity was measured as inhibition of formation of reactive oxygen species (ROS) from oxygen in cell free assays. […] A cell free membrane based in vitro assay was developed by preparing membranes from cells stably overexpressing human NOX4. hNOX4/HEK stable cell line was generated in-house for this purpose. Membranes from stably transfected cells overexpressing human NOX4 were prepared by homogenizing the cells in buffer (20 mM HEPES, 1 mM EGTA, 0.5 mM DTT, 0.5% protease inhibitor cocktail, 1 mM PMSF, pH 7.6), followed by centrifugation at 160000 g for 30 min. Membrane fraction (pellet) was resuspended in storage buffer (homogenization buffer with 10% glycerol and 100 mM NaCl) and stored at −80° C. Protein concentration was determined by Bradford reagent. H202 production by membranes expressing human NOX4 was measured using Amplex Red (Invitrogen) by following a slightly modified version of the manufacturer's instruction manual. Briefly, membranes were incubated in assay buffer (25 mM HEPES, 0.12 M NaCl, 3 mM KCl, 1 mM MgCl2, pH 7.4) with Horse Radish Peroxidase (HRP) and Amplex Red. Reaction was started by addition of […] to the membrane mix. Antagonism of NOX4 inhibitors was measured by incubating the membrane with increasing concentrations of the inhibitors for 20 min on a plate shaker prior to addition of NADPH. H2O2 levels were measured for 10 min in a BMG Fluostar microplate reader with excitation and emission wavelengths of 544 nm and 590 nm respectively. Concentration response curves were plotted as a % of maximal response obtained in the absence of the inhibitor. IC50 value was calculated from concentration response curve by nonlinear regression analysis using GraphPad PRISM software.

| inhibition at 1 µM [%] | inhibition at 10 µM [%] | IC50 [nM] | Structure (SMILES) |
| --- | --- | --- | --- |
| 94.1 | 89.7 | < 50 | Cc1nn(C)c2[nH]c(-c3ccccc3Cl)c(O)c(=O)c12 [Example 1, 6-(2-Chlorophenyl)-5-hydroxy-1,3-dimethyl-1,7-dihydro-4H-pyrazolo[3,4-b]pyridin-4-one] |
| 83.5 | 81.5 | 100 to 150 | Cc1nn(CCN2CCOCC2)c2[nH]c(-c3ccccc3Cl)c(O)c(=O)c12 [Example 2, 6-(2-Chlorophenyl)-5-hydroxy-3-methyl-1-(2-morpholinoethyl)-1H-pyrazolo[3,4-b]pyridin-4(7H)-one] |
| 93.7 | 100 | 100 to 150 | Cn1ncc2c(=O)c(O)c(-c3ccccc3Cl)[nH]c21 [Example 3, 6-(2-Chlorophenyl)-5-hydroxy-1-methyl-1,7-dihydro-4H-pyrazolo[3,4-b]pyridin-4-one] |
| 94.5 | 98.5 | > 150 | Cn1ncc2c(=O)c(O)c(-c3cccc(Cl)c3)[nH]c21 [Example 4, 6-(3-Chlorophenyl)-5-hydroxy-1-methyl-1,7-dihydro-4H-pyrazolo[3,4-b]pyridin-4-one] |
| 74 | 84.2 | > 150 | Cn1ncc2c(=O)c(O)c(-c3ccc(Cl)cc3Cl)[nH]c21 [Example 5, 6-(2,4-Dichlorophenyl)-5-hydroxy-1-methyl-1,7-dihydro-4H-pyrazolo[3,4-b]pyridin-4-one] |
| 96.3 | 94.3 | 100 to 150 | Cn1ncc2c(=O)c(O)c(-c3ccc(F)c(C(F)(F)F)c3)[nH]c21 [Example 6, 6-[4-Fluoro-3-(trifluoromethyl)phenyl]-5-hydroxy-1-methyl-1,7-dihydro-4H-pyrazolo[3,4-b]pyridin-4-one] |
| 100 | 100 | 50 to 100 | Cn1ncc2c(=O)c(O)c(-c3c(F)cccc3Cl)[nH]c21 [Example 7, 6-(2-Chloro-6-fluorophenyl)-5-hydroxy-1-methyl-1,7-dihydro-4H-pyrazolo[3,4-b]pyridin-4-one] |
| 87.5 | 100 | 50 to 100 | O=c1c(O)c(-c2ccccc2Cl)[nH]c2c1cnn2CC(F)(F)F [Example 8, 6-(2-Chlorophenyl)-5-hydroxy-1-(2,2,2-trifluoroethyl)-1,7-dihydro-4H-pyrazolo[3,4-b]pyridin-4-one] |
| 81.7 | 97.4 | > 150 | O=c1c(O)c(-c2c(F)cccc2F)[nH]c2c1cnn2-c1ccc(F)cc1 [Example 9, 6-(2,6-Difluorophenyl)-1-(4-fluorophenyl)-5-hydroxy-1,7-dihydro-4H-pyrazolo[3,4-b]pyridin-4-one] |
| 100 | 100 | < 50 | O=c1c(O)c(-c2ccccc2Cl)[nH]c2c1cnn2-c1ccc(F)cc1 [Example 10, 6-(2-Chlorophenyl)-1-(4-fluorophenyl)-5-hydroxy-1,7-dihydro-4H-pyrazolo[3,4-b]pyridin-4-one] |
| 76.6 | 76.5 | 100 to 150 | Cc1nn(C)c2[nH]c(-c3ccc(Cl)cc3Cl)c(O)c(=O)c12 [Example 11, 6-(2,4-Dichlorophenyl)-5-hydroxy-1,3-dimethyl-1,7-dihydro-4H-pyrazolo[3,4-b]pyridin-4-one] |
| 95 | 86 | 50 to 100 | Cc1nn(C)c2[nH]c(-c3ccc(F)cc3Cl)c(O)c(=O)c12 [Example 12, 6-(2-Chloro-4-fluorophenyl)-5-hydroxy-1,3-dimethyl-1,7-dihydro-4H-pyrazolo[3,4-b]pyridin-4-one] |
| 99.6 | 98.7 | < 50 | Cc1nn(C)c2[nH]c(-c3c(F)cccc3F)c(O)c(=O)c12 [Example 13, 6-(2,6-Difluorophenyl)-5-hydroxy-1,3-dimethyl-1,7-dihydro-4H-pyrazolo[3,4-b]pyridin-4-one] |
